Residue numbers refer to the chain shown, from its start. Like-named read-outs stand apart in the source and are kept apart here. Where only a bound is given, the exact number is not on record here.

In test [1] the target is T1, human androgen receptor E709Y mutant (Homo sapiens, UniProt P10275, E710Y).
T1 construct: expressed in transfected cells; host or cells: PC-3 cells, transient transfection with a pSG5-derived plasmid
T1 sequence (P10275 1-920 E710Y): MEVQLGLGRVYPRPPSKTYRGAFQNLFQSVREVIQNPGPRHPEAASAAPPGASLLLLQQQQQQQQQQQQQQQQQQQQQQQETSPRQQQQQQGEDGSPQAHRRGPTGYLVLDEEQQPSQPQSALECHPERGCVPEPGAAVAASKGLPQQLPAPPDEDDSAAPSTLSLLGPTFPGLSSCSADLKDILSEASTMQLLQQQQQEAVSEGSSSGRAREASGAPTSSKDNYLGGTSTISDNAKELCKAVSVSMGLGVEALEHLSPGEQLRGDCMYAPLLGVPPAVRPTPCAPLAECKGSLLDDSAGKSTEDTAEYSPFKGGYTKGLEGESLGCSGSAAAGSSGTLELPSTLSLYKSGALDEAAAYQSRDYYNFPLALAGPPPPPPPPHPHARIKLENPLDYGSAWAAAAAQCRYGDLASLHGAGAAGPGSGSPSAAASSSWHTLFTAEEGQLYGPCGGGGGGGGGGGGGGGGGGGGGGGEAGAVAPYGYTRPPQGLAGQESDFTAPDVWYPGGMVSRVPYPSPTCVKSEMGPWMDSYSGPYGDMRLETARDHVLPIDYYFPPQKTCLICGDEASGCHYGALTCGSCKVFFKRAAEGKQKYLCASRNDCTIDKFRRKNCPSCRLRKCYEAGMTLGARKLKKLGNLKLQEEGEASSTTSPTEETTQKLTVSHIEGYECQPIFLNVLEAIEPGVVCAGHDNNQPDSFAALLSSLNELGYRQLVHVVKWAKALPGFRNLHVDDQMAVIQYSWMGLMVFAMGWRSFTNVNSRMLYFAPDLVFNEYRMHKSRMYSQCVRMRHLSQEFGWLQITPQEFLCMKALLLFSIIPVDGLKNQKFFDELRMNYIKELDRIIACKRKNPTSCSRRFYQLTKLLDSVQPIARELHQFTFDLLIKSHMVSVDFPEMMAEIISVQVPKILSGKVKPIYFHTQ
The experiment in a line: Cell-based transactivation assay for human androgen receptor mutant E709Y.
Method: Cell-Based Transactivation Assay for Human Androgen Receptor Mutant E709Y
PC-3 cells (Kaighn et al., Invest. Urol. 17:16-23, 1979) were grown in 5% charcoal-stripped medium and seeded at a concentration of 10000 cells per well in a 96-well plate. They were transiently transfected with a pSG5-derived plasmid (#216201 from Stratagene, La Jolla, Calif., USA) coding for the human androgen receptor E709Y mutant (Georget et al., Molecular Endocrinology, 20(4): 724-734, 2006) and an MMTV-Luciferase reporter plasmid based on pGL4.14 14 (#E6691, Promega Corporation, Madison, Wis., USA). The compound to be tested was added at a concentration range varying from 1×10^−9 to 1×10^−6 M together with 1×10^−10 R1881. After 24 h incubation at 37° C. in a 5% CO2 atmosphere, 100 μl of Steady Glo Lysis and Detection reagent (Steady Glo Luciferase assay system E2550 from Promega Corporation. Madison, Wis., USA) were added. Antagonistic activity was determined by measuring Luciferase activity in a Victor 3 Luminometer (PerkinElmer, Waltham, Mass., USA) using the Steady Glo Luciferase Assay (E2550, Promega). IC50 values were calculated for anti-androgenic activity.

In test [2] the target is T2, wild-type human androgen receptor (Homo sapiens, UniProt P10275).
T2 construct: expressed in transfected cells
T2 sequence (P10275 1-920): T1 sequence (P10275 1-920 E710Y) with Y710E
As to the kind of experiment: Cell-based transactivation assay for wild-type human androgen receptor (PC-3 cells, MMTV-luciferase reporter).
Method: Cell-Based Transactivation Assay for Wild-Type Human Androgen Receptor
PC-3 cells (Kaighn et al., Invest. Urol. 17:16-23, 1979) stably transfected with the human androgen receptor (Swiss-Prot Acc. No. P10275, Entry Version 159, Sequence Version 2) and a reporter plasmid based on pGL4.14 (#E6691, Promega Corporation, Madison, Wis., USA) containing the MMTV promoter (Cato et al., EMBO J. 6:363-8, 1987) were used. They were grown in 5% charcoal-stripped medium and seeded at a concentration of 1000 cells per well in a 384-well plate. For determination of antagonistic activity, the plate additionally contained the compound to be tested at a concentration range varying from 5.12×10^−12 to 1×10^−5 M. The assay was performed in presence of 1×10^−10 R1881 (also known as methyltrienolone). After overnight incubation at 37° C. in a 5% CO2 atmosphere, 15 μl of Steady Glo Lysis and Detection reagent (Steady Glo Luciferase assay system E2550 from Promega Corporation. Madison, Wis., USA) were added. IC50 was calculated for anti-androgenic activity as well as percentage inhibition in presence of 2 μM compound in comparison to non-stimulated luciferase signal. Agonistic activity was determined using the same concentration range of compound in the absence of R1881 by measuring Luciferase activity as above. EC50 was calculated for androgenic activity. Assay/read plates were used (Polystyrol; 384, NV-white cell culture plates; Perkin Elmer).

Test [3] relates to VCaP cells. As to the kind of experiment: Proliferation assay with VCaP cells. The class given is cell-based. The conditions noted are these: Homo sapiens, 168 h, R1881 (1×10^−10) stimulated growth. How it is done: Proliferation Assay with VCaP Cells
VCaP cells ((Korenchuk et al., In Vivo 15: 163-168, 2001)) were seeded at 16 000 cells/well in 96-well plates in DMEM (F0445, Biochrom AG, Berlin, Germany) with phenol red supplemented with 10% charcoal-stripped serum. After 1 day, the cells were treated with R1881 (1×10^−10) and compound (day 0). Cell number was determined by Alamar Blue (DAL1100, Invitrogen, Life Technologies, Lohne, Germany) staining (2.5 h) at day 0 and day 7. Fluorescence was determined in Victor3 (Excitation 530 nm; emission 590 nm). Stimulated growth was defined as the signal measured at day 7 for cells treated only with R1881. Basal level was defined as the signal measured at day 7 for cells grown without R1881.

Test [4] deals with T3, human androgen receptor W741L mutant (Homo sapiens, UniProt P10275, W742L).
T3 construct: expressed in transfected cells; host or cells: PC-3 cells, transient transfection with a pSG5-derived plasmid
T3 sequence (P10275 1-920 W742L): T1 sequence (P10275 1-920 E710Y) with Y710E, W742L
The experiment in a line: Cell-based transactivation assay for human androgen receptor mutant W741L.

The test system of test [5] is LNCaP cells. As to the kind of experiment: Proliferation assay with LNCaP cells. The class given is cell-based. As to conditions: Homo sapiens, 168 h, R1881 (1×10^−10) stimulated growth, day 7, read-out: inhibition IC50 (LNCaP). How it is done:
Proliferation Assay with LNCaP Cells
LNCaP cells (Horoszewicz et al., in “Models for Prostate Cancer” (ed. G. P. Murphy), Alan R. Liss, New York 1981, p. 115-132; Horoszewicz et al., Cancer Res. 43:1809-1818, 1983) were seeded at 2000 cells/well in 96-well plates in RPMI (F1235, Biochrom AG, Berlin, Germany) without phenol red supplemented with 5% charcoal-stripped serum. After 3 days, the cells were treated with R1881) (1×10^−10) and compound (day 0). Cell number was determined by Alamar Blue (DAL1100, Invitrogen, Life Technologies, Lohne, Germany) staining (2.5 h) at day 0 and day 7. Fluorescence was determined in Victor3 (Excitation 530 nm; emission 590 nm). Stimulated growth was defined as the signal measured at day 7 for cells treated only with R1881. Basal level was defined as the signal measured at day 7 for cells grown without R1881.

The mark [6] stands for this setting: day 7, read-out: Antiproliferative activity VCaP IC50.
Where [7] appears, read: day 7, read-out: inhibition IC50 (VCaP).

Regarding `COc1ccc(CN2C(=S)N(c3ccc(C#N)c(C(F)(F)F)c3)C(=O)C2(C)C)cc1` [Comparative data^4], the IC50 is 80.2 nM in test [1], 860 nM in test [3] (setting [6]) and 379 nM in test [4]. This molecule also displayed an EC50 in test [2] of 6810 nM.
Turning to `CC1(C)C(=O)N(c2ccc(C#N)c(C(F)(F)F)c2)C(=S)N1Cc1ccc(OCCN2CCOCC2)nc1` [Example 3, 4-[4,4-Dimethyl-3-({6-[2-(morpholin-4-yl)ethoxy]pyridin-3-yl}methyl)-5-oxo-2-thioxoimidazolidin-1-yl]-2-(trifluoromethyl)benzonitrile], the IC50 worked out at 79.5 nM in test [1], 127 nM in test [5], 176 nM in test [3] (setting [6]) and 118 nM in test [4]. The molecule also returned an EC50 in test [2] greater than 10000 nM.
Take `CC1(C)C(=O)N(c2ccc(C#N)c(C(F)(F)F)c2)C(=S)N1Cc1ccc(OC2CCOCC2)nc1` [Example 5, 4-(4,4-Dimethyl-5-oxo-3-{[6-(tetrahydro-2H-pyran-4-yloxy)pyridin-3-yl]methyl}-2-thioxoimidazolidin-1-yl)-2-(trifluoromethyl)benzonitrile]: the IC50 in test [1] was found to be 44.8 nM; in test [5] it was 200 nM; in test [4] it was 49.7 nM. The EC50 in test [2] was greater than 10000 nM.
Take `CC1(C)C(=O)N(c2ccc(C#N)c(C(F)(F)F)c2)C(=S)N1Cc1cnc(N2CCOCC2)nc1N` [Example 6, 4-(3-{[4-Amino-2-(morpholin-4-yl)pyrimidin-5-yl]methyl}-4,4-dimethyl-5-oxo-2-thioxoimidazolidin-1-yl)-2-(trifluoromethyl)benzonitrile]: the IC50 in test [1] is 19.3 nM; in test [4] it was 92.8 nM. Moreover, in test [2], the EC50 is 5000 nM.
For the molecule `CC1CN(c2ccc(CN3C(=S)N(c4ccc(C#N)c(C(F)(F)F)c4)C(=O)C3(C)C)cn2)CCO1` (stereo not shown) [Example 7, 4-(4,4-Dimethyl-3-{[6-(2-methylmorpholin-4-yl)pyridin-3-yl]methyl}-5-oxo-2-thioxoimidazolidin-1-yl)-2-(trifluoromethyl)benzonitrile], the IC50 in test [1] came out at 22.6 nM; in test [5] it was 118 nM; in test [3] (setting [6]) it was 106 nM; in test [3] (setting [7]), 106 nM; in test [4], 49.1 nM. In test [2], this molecule yielded an EC50 greater than 10000 nM.
In the case of `COc1ccc(CN2C(=S)N(c3ccc(C#N)c(C(F)(F)F)c3)C(=O)C2(C)C)cn1` [Example 8, 4-{3-[(6-Methoxypyridin-3-yl)methyl]-4,4-dimethyl-5-oxo-2-thioxoimidazolidin-1-yl}-2-(trifluoromethyl)benzonitrile], the IC50 in test [1] was determined as 9.18 nM; in test [5], 120 nM; in test [3] (setting [6]), 92.5 nM; in test [3] (setting [7]) it was 92 nM; in test [4], 49.2 nM. In test [2], this molecule displayed an EC50 of 8860 nM.
Turning to `Cc1nccn1-c1ccc(CN2C(=S)N(c3ccc(C#N)c(C(F)(F)F)c3)C(=O)C2(C)C)cn1` [Example 15, 4-(4,4-Dimethyl-3-{[6-(2-methyl-1H-imidazol-1-yl)pyridin-3-yl]methyl}-5-oxo-2-thioxoimidazolidin-1-yl)-2-(trifluoromethyl)benzonitrile], the IC50 in test [1] was 29.9 nM; in test [5], 116 nM; in test [3] (setting [6]), 253 nM; in test [4], 13.2 nM. Moreover, the EC50 in test [2] was greater than 10000 nM.
Take `CC1(C)CC(=O)N(c2ccc(CN3C(=S)N(c4ccc(C#N)c(C(F)(F)F)c4)C(=O)C3(C)C)cn2)C1` [Example 16, 4-(3-{[6-(4,4-Dimethyl-2-oxopyrrolidin-1-yl)pyridin-3-yl]methyl}-4,4-dimethyl-5-oxo-2-thioxoimidazolidin-1-yl)-2-(trifluoromethyl)benzonitrile]: the results for the IC50 in test [1], in test [5] and in test [4] were 143 nM, 121 nM and 78.5 nM, respectively. Also, the EC50 in test [2] is greater than 10000 nM.
On to `CN=S1(=O)CCN(c2ccc(CN3C(=S)N(c4ccc(C#N)c(C(F)(F)F)c4)C(=O)C3(C)C)cn2)CC1` [Example 22, 4-[4,4-Dimethyl-3-({6-[1-(methylimino)-1-oxido-1λ^6-thiomorpholin-4-yl]pyridin-3-yl}methyl)-5-oxo-2-thioxoimidazolidin-1-yl]-2-(trifluoromethyl)benzonitrile], for which the EC50 in test [2] was greater than 10000 nM. The IC50 in test [5] came out at 135 nM; in test [4] it was 57.4 nM.

For the origin of these results see patent US20120251551A1, “Substituted (Heteroarylmethyl)thiohydantoins” (BAYER PHARMA AKTIENGESELLSCHAFT, priority 2009, published 2012).
